Results taken from US11235976B2, “Nanocarbon-iron composite system as well as composition, preparation method and use thereof” (Chongqing Lummy Pharmaceutical Co., LTD, priority 2017, dated 2022).

Experiments:
Experiment in all cases: Cell experiment, cell survival rate
Format in all cases: cell-based
Settings in all cases: 48 h
[1] = test system: A549 lung cancer cells
Protocol: (§1) Cells growing in a log phase are collected, the concentration of the cell suspension is adjusted, 100 μL of cell suspension is added to each well and the cells are plated (edge wells are filled with sterile PBS) at a density of 1×10^3-10^4 cells/well. The cells are incubated for 24 hours at 37° C. under the condition of 5% CO2, a nanocarbon-iron solution having a concentration gradient (nanocarbon content: 125, 62.5, 15.63 and 3.91 μg/mL; and ferric ion content: 13.65, 6.83, 1.71 and 0.43 μg/mL) is added, and three sub-wells are set. Then the cells are incubated for 48 hours at 37° C. under the condition of 5% CO2. 10 μL of CCK8 solution is added to each well and then the cells are continuously incubated for 2 hours. The absorbance of each well is measured at OD=450 nm with the microplate reader. In addition, a negative control group, nanocarbon control groups having the same concentration and iron preparation control groups having the same concentration are set.
as §1, with “and 1” for “100”, “of a 6-well plate” for “and the cells are plated (edge wells are filled with sterile PBS)”, “3×10^4” for “1×10^3-10^4”, “1.71,” for “1.71 and”, “The” for “10 μL of CCK8 solution is added to each well and then the”, “trypsinized and counted.” for “continuously incubated for 2 hours. The absorbance of each well is measured at OD=450 nm with the microplate reader.”

[2] = test system: SKOV3 ovarian cancer cells
Protocol: as §1
as §1, with “and 1” for “100”, “of a 6-well plate” for “and the cells are plated (edge wells are filled with sterile PBS)”, “3×10^4” for “1×10^3-10^4”, “1.71,” for “1.71 and”, “The” for “10 μL of CCK8 solution is added to each well and then the”, “trypsinized and counted.” for “continuously incubated for 2 hours. The absorbance of each well is measured at OD=450 nm with the microplate reader.”

[3] = test system: MDA-MB-231 breast cancer cells
Protocol: as §1
as §1, with “and 1” for “100”, “of a 6-well plate” for “and the cells are plated (edge wells are filled with sterile PBS)”, “3×10^4” for “1×10^3-10^4”, “1.71,” for “1.71 and”, “The” for “10 μL of CCK8 solution is added to each well and then the”, “trypsinized and counted.” for “continuously incubated for 2 hours. The absorbance of each well is measured at OD=450 nm with the microplate reader.”

[4] = test system: HCT116 colon cancer cells
Protocol: as §1
as §1, with “and 1” for “100”, “of a 6-well plate” for “and the cells are plated (edge wells are filled with sterile PBS)”, “3×10^4” for “1×10^3-10^4”, “1.71,” for “1.71 and”, “The” for “10 μL of CCK8 solution is added to each well and then the”, “trypsinized and counted.” for “continuously incubated for 2 hours. The absorbance of each well is measured at OD=450 nm with the microplate reader.”

[5] = test system: Hela cervical cancer cells
Protocol: as §1
as §1, with “and 1” for “100”, “of a 6-well plate” for “and the cells are plated (edge wells are filled with sterile PBS)”, “3×10^4” for “1×10^3-10^4”, “1.71,” for “1.71 and”, “The” for “10 μL of CCK8 solution is added to each well and then the”, “trypsinized and counted.” for “continuously incubated for 2 hours. The absorbance of each well is measured at OD=450 nm with the microplate reader.”

[6] = test system: SGC-7901 stomach cancer cells
Protocol: as §1
as §1, with “and 1” for “100”, “of a 6-well plate” for “and the cells are plated (edge wells are filled with sterile PBS)”, “3×10^4” for “1×10^3-10^4”, “1.71,” for “1.71 and”, “The” for “10 μL of CCK8 solution is added to each well and then the”, “trypsinized and counted.” for “continuously incubated for 2 hours. The absorbance of each well is measured at OD=450 nm with the microplate reader.”

[7] = iron preparation alone 0.43 μg/mL
[8] = iron preparation alone 1.71 μg/mL
[9] = iron preparation alone 6.83 μg/mL
[10] = iron preparation alone 13.65 μg/mL

**Q.** ferrous gluconate was tested. Which “Cell Survival Rate” value [1, 7] did it give?
**A.** 100%

**Q.** And the “Cell Survival Rate” value [1, 8]?
**A.** 100%

**Q.** What about the “Cell Survival Rate” value [1, 9] of the same substance?
**A.** 100%

**Q.** What about the “Cell Survival Rate” value [1, 10] of the same substance?
**A.** 97.31%

**Q.** What about the “Cell Survival Rate” value [2, 7] of the same substance?
**A.** 100%

**Q.** And the “Cell Survival Rate” value [2, 8]?
**A.** 100%

**Q.** And the “Cell Survival Rate” value [2, 9]?
**A.** 96.47%

**Q.** What about the “Cell Survival Rate” value [2, 10] of the same substance?
**A.** 97.11%

**Q.** And the “Cell Survival Rate” value [3, 7]?
**A.** 100%

**Q.** What about the “Cell Survival Rate” value [3, 8] of the same substance?
**A.** 100%

**Q.** And the “Cell Survival Rate” value [3, 9]?
**A.** 100%

**Q.** What about the “Cell Survival Rate” value [3, 10] of the same substance?
**A.** 100%

**Q.** What about the “Cell Survival Rate” value [4, 7] of the same substance?
**A.** 100%

**Q.** And the “Cell Survival Rate” value [4, 8]?
**A.** 100%

**Q.** And the “Cell Survival Rate” value [4, 9]?
**A.** 100%

**Q.** What about the “Cell Survival Rate” value [4, 10] of the same substance?
**A.** 98.67%

**Q.** What about the “Cell Survival Rate” value [5, 7] of the same substance?
**A.** 100%

**Q.** And the “Cell Survival Rate” value [5, 8]?
**A.** 100%

**Q.** And the “Cell Survival Rate” value [5, 9]?
**A.** 100%

**Q.** What about the “Cell Survival Rate” value [5, 10] of the same substance?
**A.** 97.86%

**Q.** And the “Cell Survival Rate” value [6, 7]?
**A.** 100%

**Q.** What about the “Cell Survival Rate” value [6, 8] of the same substance?
**A.** 100%

**Q.** What about the “Cell Survival Rate” value [6, 9] of the same substance?
**A.** 99.48%
